Consider six molecules from patent publication US10214492B2, “Heterocyclic inhibitors of MCT4” (Vettore, LLC, priority 2016, dated 2019).

Structures are written as SMILES.

In series [1] the target is MCT4 (Homo sapiens (Human), UniProt O15427). Description: Assay 3: MCT4-mediated lactate transport in MDA-MB-231 breast cancer cells. Type of series: cell-based. The conditions noted are these: MDA-MB-231 cells; lactate transport. An outline of the steps: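 MDA-MB-231 cells loaded with BCECF-AM, 5 min at 37° C, washed and resuspended in Tyrode's Solution, pH 7.4. MCT4 lactate/proton symport followed as the intracellular pH change reported by BCECF fluorescence.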
Sequence of MCT4 (O15427 whole entry, looked up): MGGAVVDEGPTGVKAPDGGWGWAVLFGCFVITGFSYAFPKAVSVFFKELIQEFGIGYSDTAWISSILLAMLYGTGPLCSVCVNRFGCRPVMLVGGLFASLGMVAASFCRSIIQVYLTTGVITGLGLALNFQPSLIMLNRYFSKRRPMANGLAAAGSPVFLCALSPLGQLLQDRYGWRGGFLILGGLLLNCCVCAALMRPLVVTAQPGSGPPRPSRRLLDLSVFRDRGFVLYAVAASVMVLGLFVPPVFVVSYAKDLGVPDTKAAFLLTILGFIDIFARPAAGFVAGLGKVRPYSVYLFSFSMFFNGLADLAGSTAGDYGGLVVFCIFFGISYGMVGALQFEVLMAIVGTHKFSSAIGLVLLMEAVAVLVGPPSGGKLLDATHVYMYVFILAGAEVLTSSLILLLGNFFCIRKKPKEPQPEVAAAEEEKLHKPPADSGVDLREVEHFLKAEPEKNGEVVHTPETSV
Sequence of MCT4 (P35613 whole entry partner, looked up): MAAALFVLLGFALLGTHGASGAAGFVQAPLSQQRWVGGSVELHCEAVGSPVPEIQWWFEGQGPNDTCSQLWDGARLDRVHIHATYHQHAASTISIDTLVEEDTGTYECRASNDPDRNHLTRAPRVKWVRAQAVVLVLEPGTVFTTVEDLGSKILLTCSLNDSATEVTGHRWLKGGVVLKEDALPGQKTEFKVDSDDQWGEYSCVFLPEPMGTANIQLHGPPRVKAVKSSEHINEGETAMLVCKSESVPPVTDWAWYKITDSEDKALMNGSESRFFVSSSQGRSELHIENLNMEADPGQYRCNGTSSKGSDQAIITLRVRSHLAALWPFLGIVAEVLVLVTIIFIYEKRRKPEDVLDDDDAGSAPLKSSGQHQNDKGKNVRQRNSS

The target of series [2] is MCT1 (Homo sapiens (Human), UniProt P53985). Kind of series: Assay 4: MCT1-mediated lactate transport in BT20 breast cancer cells. It counts as cell-based. The conditions noted are these: Table 27. The method, boiled down:
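BT20 cells loaded with BCECF-AM (30 mM DMSO stock) for 5 min at 37° C, washed and resuspended in Tyrode's Solution pH 7.4. Lactate uptake tracked via BCECF intracellular pH signal after adding 10 mM L-lactate.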

The nature of series [3]: Metabolic stability in human liver microsomes (in vitro t1/2). It counts as in vitro ADME. The conditions noted are these: for half-life at 2 µM: read-out: Human microsome t1/2, min; for Human microsome % 60 min: human liver microsomes. The method, boiled down:
(§1)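 Liver microsomes (0.5 mg/mL final) incubated with test compound at 2 μM final plus NADPH; samples taken at 0, 15, 30, 45 and 60 min. Parent remaining quantified by LC-MS/MS; k from ln(% remaining) vs time regression, in vitro t1/2 = −0.693/k.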
Background: Liver microsomes are a subcellular fraction often used to study metabolism.

Series [4] in a line: Metabolic stability in rat liver microsomes (in vitro t1/2). Type of series: in vitro ADME. To be noted: for half-life at 2 µM: rat liver microsomes 0.5 mg/mL, 2 μM compound, read-out: Rat microsome t1/2, min; for Rat microsome % 60 min: rat liver microsomes. As for the experimental part:
The following are assays that may be used to evaluate the metabolic stability of compounds of Formula (I) in human, rat, or mouse microsomes. The assays follow a common procedure recited below. 1. […] Two separated experiments were performed as follows. a) With NADPH: 10 μL of 20 mg/mL liver microsomes and 40 μL of 10 mM NADPH were added to the incubations. […] The final concentration of microsomes was 0.5 mg/mL. 3. The reaction was started with the addition of 4 μL of 200 μM control compound or test compound solutions. Verapamil was used as positive control in this study. The final concentration of test compound or control compound was 2 μM. 4. Aliquots of 50 μL were taken from the reaction solution at 0, 15, 30, 45 and 60 min. […] Samples were centrifuged at 3,220 g for 40 minutes. A 90 μL aliquot of the supernatant was mixed with 90 μL of ultra-pure H2O and then used for LC-MS/MS analysis. 5. Data analysis. All calculations were carried out using Microsoft Excel. Peak areas were determined from extracted ion chromatograms. The slope value, k, was determined by linear regression of the natural logarithm of the remaining percentage of the parent drug vs. incubation time curve. The in vitro half-life (in vitro t1/2) was determined from the slope value: in vitro t1/2=−(0.693)/k.

Series [5] can be described thus: Metabolic stability in mouse liver microsomes (in vitro t1/2). To be noted: for half-life at 2 µM: mouse liver microsomes 0.5 mg/mL, 2 μM compound, read-out: Mouse microsome t1/2, min; for Mouse microsome % 60 min: mouse liver microsomes. Type of series: in vitro ADME. An outline of the steps:
as §1

Series [6] in a line: Pharmacokinetic assay in mouse (IV 3 mg/kg, PO 10 mg/kg). Type of series: in vivo. The conditions noted are these: Male CD1 mouse; for Mouse F: oral bioavailability; for Mouse F / half-life: PO 10 mg/kg; for half-life / Vd: plasma; for half-life: read-out: Mouse t1/2 (converted); for Vd: volume of distribution, read-out: Mouse Vss. An excerpt:
(§2) The following are assays that may be used to evaluate the pharmacokinetic properties of Formula (I) in mouse or rat. The assays follow a common procedure recited below.
(§3) 1. […] For PO (oral gavage), DMSO/PEG400 (10:90). Formulations freshly prepared on the day of dosing or prior to dosing. Storage at room temperature.
(§4) 2. Test Species: For Mouse: Male CD1 strain, approximately 6-8 weeks in age, approximately 20-30 g. For Rat: Male Sprague-Dawley strain, approximately 6-8 weeks in age, approximately 200-300 g.
(§5) 3. Dose Level: For IV, 3 mg/kg. For PO, 10 mg/kg.
(§6) 4. Number of animals: 3 per assay.
(§7) 5. PK time points: For IV (plasma): 5 min, 15 min, 1, 2, 4, 6, 8, 24 h post dose. For PO (plasma): 15 min, 30 min, 1, 2, 4, 6, 8, 24 h post dose.
(§8) 6. Blood Sample Collection and Processing. Blood was collected (˜0.2 mL per time point) from jugular vein. Blood of each sample was transferred into plastic micro centrifuge tubes containing anticoagulant of EDTA-K2. Blood samples were centrifuged at 2,000 g for 5 minutes at 4° C. to obtain plasma.
(§9) 7. Samples Analysis: Plasma samples were analyzed using LC/MS/MS method, and pharmacokinetic parameters (half-life: t1/2; oral bioavailability: F; volume of distribution: Vss).

The nature of series [7]: Pharmacokinetic assay in rat (IV 3 mg/kg, PO 10 mg/kg). It counts as in vivo. The conditions noted are these: Male Sprague-Dawley rat; for Rat F: oral bioavailability; for Rat F / half-life: PO 10 mg/kg; for half-life / Vd: plasma; for half-life: read-out: Rat t1/2 (converted); for Vd: volume of distribution, read-out: Rat Vss.
Source text: as §2, §3, §4, §5, §6, §7, §8, §9

The mark [8] stands for this setting: human liver microsomes 0.5 mg/mL, 2 μM compound.

Sequence of MCT1 (P53985 whole entry): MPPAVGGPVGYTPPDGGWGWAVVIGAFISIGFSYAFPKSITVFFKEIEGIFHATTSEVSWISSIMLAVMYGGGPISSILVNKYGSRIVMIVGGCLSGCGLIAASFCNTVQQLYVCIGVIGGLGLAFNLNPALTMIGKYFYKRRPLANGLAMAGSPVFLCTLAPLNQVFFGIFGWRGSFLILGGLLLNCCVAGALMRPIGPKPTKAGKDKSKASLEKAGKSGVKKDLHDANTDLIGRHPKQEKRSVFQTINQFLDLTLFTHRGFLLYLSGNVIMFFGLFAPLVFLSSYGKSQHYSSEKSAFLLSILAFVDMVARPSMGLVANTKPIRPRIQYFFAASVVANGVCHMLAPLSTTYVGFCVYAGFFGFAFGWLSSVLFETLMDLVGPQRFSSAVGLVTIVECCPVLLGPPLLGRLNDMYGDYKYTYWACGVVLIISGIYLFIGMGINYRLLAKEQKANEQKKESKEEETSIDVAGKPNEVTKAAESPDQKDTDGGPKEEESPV
Sequence of MCT1 (P35613 140-385 partner): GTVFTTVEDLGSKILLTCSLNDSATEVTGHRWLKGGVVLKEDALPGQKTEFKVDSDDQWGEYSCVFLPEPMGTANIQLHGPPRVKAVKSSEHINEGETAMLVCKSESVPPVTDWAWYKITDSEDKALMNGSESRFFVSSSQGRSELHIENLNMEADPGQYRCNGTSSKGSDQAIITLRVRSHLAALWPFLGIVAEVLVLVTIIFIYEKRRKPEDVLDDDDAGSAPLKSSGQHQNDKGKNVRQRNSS

The term IC50 denotes the concentration that gives 50% inhibition. As for `Cn1ncc2cccc(-n3nc(COC(C)(C)C(=O)O)cc3-c3cccc(OCC(C)(C)C)c3)c21` [Example 167, 2-([5-[3-(2,2-dimethylpropoxy)phenyl]-1-(1-methyl-1H-indazol-7-yl)-1H-pyrazol-3-yl]-methoxy)-2-methylpropanoic acid], half-maximal inhibition in series [1] (IC50) required 0.59 nM. In addition, the IC50 in series [2] came out at 36000 nM. Further, the half-life at 2 µM in series [3] (setting [8]) amounted to 4.17 h. Further, the “Human microsome % 60 min” value in series [3] stood at 84%. Moreover, in series [4], the half-life at 2 µM turned out to be 1.23 h and the “Rat microsome % 60 min” value was 72%. For the same molecule, in series [5], the half-life at 2 µM amounted to 7.17 h and the “Mouse microsome % 60 min” value was 97%. Besides, in series [6], the “Mouse F” value is recorded as 24%, the half-life is 1.7 h and the Vd was found to be 2.6 L/kg. Moreover, in series [7], the “Rat F” value stood at 72%, the half-life was 2.2 h and the Vd stood at 1.2 L/kg.
Take `CC[C@@](C)(OCc1cc(-c2cc(OC)cc(OC)c2)n(-c2ccccc2Cl)n1)C(=O)O` [Example 222, (2R)-2-([1-(2-Chlorophenyl)-5-(3,5-dimethoxyphenyl)-1H-pyrazol-3-yl]-methoxy)-2-methylbutanoic acid]: the IC50 in series [1] was 3.9 nM. Further, the IC50 in series [2] came out at 94000 nM. Further, the “Human microsome t1/2, min” value in series [3] (setting [8]) is given as “∞”. Besides, the “Human microsome % 60 min” value in series [3] came out at 110%. Further, in series [4], the half-life at 2 µM came out at 5.58 h and the “Rat microsome % 60 min” value is on record as 90%. Besides, in series [5], the half-life at 2 µM is 16.7 h and the “Mouse microsome % 60 min” value is on record as 94%.
On to `Cn1ncc2ccc(-c3cc(COC(C)(C)C(=O)O)nn3Cc3ccccc3Cl)cc21` [Example 226, 2-([1-[(2-Chlorophenyl)methyl]-5-(1-methyl-1H-indazol-6-yl)-1H-pyrazol-3-yl]-methoxy)-2-methylpropanoic acid], for which the figures for the IC50 in series [1] and in series [2] were 15 nM and 54000 nM, respectively. Further, the figures for the half-life at 2 µM in series [3] (setting [8]), in series [4] and in series [5] were 7.8 h, 7.58 h and 11.4 h, respectively. In addition, the “Human microsome % 60 min” value in series [3] is recorded as 95%. In addition, the “Rat microsome % 60 min” value in series [4] turned out to be 88%. Further, in series [5], the “Mouse microsome % 60 min” value worked out at 95%.
On to `CCCn1ncc2ccc(-c3cc(COC(C)(C)C(=O)O)nn3-c3ccccc3N3CCC3)cc21` [Example 246, 2-([1-[2-(Azetidin-1-yl)phenyl]-5-(1-propyl-1H-indazol-6-yl)-1H-pyrazol-3-yl]methoxy)-2-methylpropanoic acid], for which it took 3.1 nM to reach half-maximal inhibition in series [1] (IC50). The molecule further displayed an IC50 in series [2] of 32000 nM. Also, the half-life at 2 µM in series [3] (setting [8]) came to 1.58 h. Besides, the “Human microsome % 60 min” value in series [3] was determined as 65%. Also, in series [4], the half-life at 2 µM turned out to be 1.82 h and the “Rat microsome % 60 min” value was 69%. In series [5], the half-life at 2 µM was 2.8 h and the “Mouse microsome % 60 min” value was found to be 81%. Further, in series [7], the “Rat F” value came to 52%, the half-life is 4.7 h and the Vd stood at 1.7 L/kg.
Regarding `COc1cc(OC)cc(-c2cc(COC(C)(C)C(=O)O)nn2-c2ccccc2N2CCC2)c1` [Example 251, 2-((1-(2-(Azetidin-1-yl)phenyl)-5-(3,5-dimethoxyphenyl)-1H-pyrazol-3-yl)methoxy)-2-methylpropanoic acid], inhibition in series [1] was half-maximal at 5.6 nM (IC50). Further, half-maximal inhibition in series [2] (IC50) required 98000 nM. Also, in series [3] (setting [8]), the half-life at 2 µM worked out at 3.02 h. Also, in series [3], the “Human microsome % 60 min” value is 77%. For the same molecule, in series [4], the half-life at 2 µM amounted to 3.02 h and the “Rat microsome % 60 min” value was 83%. In series [5], the half-life at 2 µM amounted to 1.55 h and the “Mouse microsome % 60 min” value was 63%. Besides, in series [7], the “Rat F” value came out at 98%, the half-life was 3 h and the Vd was found to be 0.38 L/kg.
As to `CCn1ncc2ccc(-c3cc(CO[C@](C)(CC)C(=O)O)nn3-c3ccccc3N3CCC3)cc21` [Example 269, (2R)-2-([1-[2-(Azetidin-1-yl)phenyl]-5-(1-ethyl-1H-indazol-6-yl)-1H-pyrazol-3-yl]methoxy)-2-methylbutanoic acid], half-maximal inhibition in series [1] (IC50) required 1 nM. The same molecule yielded an IC50 in series [2] of 58000 nM. In series [6], the “Mouse F” value turned out to be 100%, the half-life is 3.3 h and the Vd worked out at 1.3 L/kg.
